Assay results as given in US20190247376A1, “NICOTINIC ACETYLCHOLINE RECEPTOR AGONIST ATTENUATES ILC2-DEPENDENT AIRWAY HYPERREACTIVITY” (University of Southern California, priority 2016, published 2019).

Legend:
[1] = system: lung ILC2s; assay: Flow cytometry of proliferation, transcription factor and signalling markers in lung ILC2s; format: cell-based, mouse; details: BALB/cByJ mice, rm-IL-33 0.5 μg, agonist 125 μg, three consecutive days
Source text: FIGS. 5A-5F: Cholinergic signal attenuates ILC2 proliferation and GATA3 expression. (FIG. 5A) Mean fluorescence intensity of Ki67 and percentage of Ki67+ cells in isolated lung ILC2s, stimulated with IL-33 in the absence and presence of α7nAChR. (FIG. 5B) Mean fluorescence intensity of GATA3 in isolated lung ILC2s, stimulated with IL-33 in the absence and presence of α7nAChR. One representative experiment of two is shown (n=5; Student's t test *, p<0.05; **, p<0.01; ***p<0.001). […] FACS-purified ILC2s from WT mice challenged with rm-IL-33 with or without α7nAChR agonist as described in FIG. 3A were quantified by NanoString nCounter technology. Data range from −1 to +1 for the most reduced and most increased gene expression, respectively. (FIG. 5D) Expression of NF-κB p65 in isolated lung ILC2s from mice challenged with IL-33 with (dotted line) or without (thick line) α7nAChR agonist. The level of isotype-matched stain control is shown as a gray-filled histogram. (FIG. 5E) Expression of phosphorylated IKKα/β (Ser176/180) in isolated lung ILC2s stimulated with IL-33, with (dotted line) or without (thick line) α7nAChR agonist for 24 hours. The level of isotype-matched stain control is shown as a gray-filled histogram. (FIG. 5F) Mean fluorescence intensity of phosphorylated IKKα/β with or without α7nAChR agonist.
FIGS. 9A-9C: Effect of α7nAChR agonist on some marker expressions by ILC2s. A cohort of BALB/cByJ mice were intranasally challenged with rm-IL-33 (0.5 μg) with or without α7nAChR agonist (125 μg) for three consecutive days. Histogram and MFI of CD25 (FIG. 9A), CD127 (FIG. 9B) and ST2 (FIG. 9C) in isolated lung ILC2s. Data are representative of at least two independent experiments and are presented as means±SEM (n=4; Student's t test *, p<0.05).
Biotinylated anti-mouse lineage (CD3e (145-2C11), CD45R (RA3-3B2), Gr-1 (RB6-8C5), CD11c (N418), CD11b (M1/70), Ter119 (TER-119), NK1.1 (PK136), TCR-β (H57-597), TCR-γδ (GL3), and FcεRIα (MAR-1), Streptavidin-FITC, FITC anti-mouse CD3 (145-2C11), BV510 anti-mouse CD4 (RM4-5), APC-Cy7 anti-mouse CD25 (PC61), PE anti-mouse CD25 (PC61), BV421 anti-mouse CD25 (PC61), BV510 anti-mouse CD90.2 (53-2.1), APC anti-mouse CD127 (A7R34), PE-Cy7 anti-mouse CD127 (A7R34), FITC anti-mouse CD45 (30F-11), PE/Cy7 anti-mouse CD45 (30-F11), PE anti-mouse IL-5 (TRFK5), BV421 anti-mouse GATA3 (16E10A23), 7-AAD Viability staining solution, purchased from BioLegend (San Diego, Calif.). PE anti-mouse ST2 (IL-33R, RMST2-2), PerCP-eFluor710 anti-Mouse ST2 (RMST2-2), Streptavidin APC-eFluor780, Alexa Fluor647 labeled anti-IL-4 (clone 11B11), eFluor 450 anti-mouse CD45 (30F-11), eFluor450 anti-CD44 (clone IM7), eFluor-660 anti-mouse Ki-67 (SollA15), PE/Cy7 anti-mouse IL-13 (eBio13A), anti-mouse BCL-2 (10C4), were purchased from eBioscience. Alexa Fluor 488 anti-mouse p65-NF-κB (532301) was purchased from R&D Systems (dilution 1:50). Alexa Fluor 647 conjugated α-bungarotoxin (Invitrogen, San Diego, Calif.). PE anti-mouse Phospho-IKKα/β (Ser 176/180) (16A6) was purchased from Cell Signaling Technology (dilution 1:50). PE anti-rat α7nAChR (319) was purchased from Santa Cruz Biotechnology (dilution 1:50). This antibody has been used to identify this receptor previously in several studies^69. Lineage marker antibodies were used at the dilution of 1:400, unless mentioned otherwise other antibodies were used at the dilution of 1:200.
Intracellular staining was performed using BD Cytofix/Cytoperm kit (BD Bioscience, San Jose, Calif.) according to the manufacturer's instructions. For analysis of GATA3 and Ki-67 expression, freshly isolated cells were fixed and permeabilized using Fixation/Permeabilization buffer kit (eBioscience) according to the manufacturer's instructions and as previously described^70.

[2] = cited from earlier work

Row | Compound | expression of CD25, CD127, and ST2 by ILC2s [1] | AHR ([2]; HDM-induced asthma model) | Th2 cytokines ([2]; HDM-induced asthma model) | HDM-induced allergic lung inflammation ([2]; asthma model)
1 | 3-[(3E)-3-[(2,4-dimethoxyphenyl)methylidene]-5,6-dihydro-4H-pyridin-2-yl]pyridine [GTS-21] | did not alter | – | – | –
2 | CN1CCCC1c1cccnc1 (stereo not shown) [nicotine] | – | not suppressed | suppression | attenuated
